Assay results from US12083138B2, “Methods to reduce complications of intra-articular steroid” (TAIWAN LIPOSOME CO., LTD., priority 2018, dated 2024).

Assays:
[1] = system: cartilage; assay: Cartilage toluidine blue staining, comparison of TLC599 with TA and ER-TA, Study #75903-18-214
Procedure: Proteoglycan loss was evaluated by cationic dyes, toluidine blue, that staining proteoglycans.

[2] = system: chondrocyte; conditions: compared among hydrocortisone, triamcinolone and dexamethasone; cited from earlier work

Structure (SMILES)	proteoglycan loss (toluidine blue staining) ([1]; high dose 18.75 mg/knee, single IA injection, vs saline (FIG. 3))	proteoglycan loss in cartilage ([1]; single dose (FIG. 3))	effectiveness to induce chondrocyte apoptosis [2]
CC1(C)O[C@@H]2C[C@H]3[C@@H]4CCC5=CC(=O)C=C[C@]5(C)[C@@]4(F)[C@@H](O)C[C@]3(C)[C@]2(C(=O)CO)O1 [TA, triamcinolone acetonide]	significantly proteoglycan loss compared to saline	moderate proteoglycan loss	–
C[C@@H]1C[C@H]2[C@@H]3CCC4=CC(=O)C=C[C@]4(C)[C@@]3(F)[C@@H](O)C[C@]2(C)[C@@]1(O)C(=O)CO [dexamethasone]	–	–	most effective
